Reference: paper PMC4713719 (European Journal of Clinical Pharmacology, 2015)
Read-outs that look alike come from different tables or passages of the source.

Columns and labels:
[1] = test system: patients with relapsed and refractory multiple myeloma; assay: Grade 3 or 4 adverse events and MTD in the B2207 trial; type: in vivo, human
Text: The two combination studies, B2207 and PANORAMA-1, reported efficacy data in patients with relapsed and refractory multiple myeloma. In the current analysis, exposure–efficacy relationship was explored using the efficacy data (ORR based on IMWG criteria) from the B2207 trial.

[2] = test system: patients with multiple myeloma; conditions: cited from earlier work
[3] = read-out: Projected Cmax; 20 mg oral dose used in the B2207 study
[4] = Panobinostat plasma PK in the B2207 phase 1b trial (LC-MS/MS, non-compartmental); conditions: B2207, PAN + BTZ + Dex vs historical single-agent trials
Procedure: In the dose escalation part, PK samples were collected on cycle 1, day 8, and cycle 1, day 15 at pre-dose, and various intervals post-dose up to 48 h.

[5] = Panobinostat plasma PK in the PANORAMA-1 phase 3 trial (Japan subset); type: in vivo, human; conditions: PANORAMA-1 cycle 1 day 8, PAN + BTZ + Dex, N = 12
Procedure: Each phase was of 24 weeks duration with treatment phase 1 consisting of eight, 3-week cycles and treatment phase 2 consisting of four, 6-week cycles.
In this study, plasma samples for panobinostat and bortezomib were collected in a subset of Asian patients. Blood samples were taken at scheduled time points (cycle 1, day 1, and cycle 1 day 8 at pre-dose and at 0.5, 1, 2, 3, 4, 8, 24, and 48 h post-dose) for PK analysis.

[6] = 20 mg PAN single agent (tiw qw), multiple oral dose, N = 32, cited from earlier work
patients = test system: patients; design: method as in historical single-agent studies; conditions: 20 mg PAN (tiw qw) single agent, pooled, N = 309, ref historical single-agent studies, cited from earlier work
[7] = cited from earlier work
[8] = cited from earlier work; remark: listed apart in the source
CYP3A = conditions: strong CYP3A inhibitor, cancer patients; cited from earlier work
CYP2D6 = conditions: sensitive CYP2D6 substrate, cancer patients; cited from earlier work
[9] = patients with solid tumors; cited from earlier work
[10] = test system: class I, II, and IV histone deacetylases; conditions: cited from earlier work
[11] = design: method as in unpublished data; conditions: 20 mg panobinostat + 25 mg lenalidomide + 40 mg dexamethasone (day 1 through day 4); ref unpublished data; cited from earlier work
[12] = test system: patients with advanced hematologic malignancies; conditions: panobinostat alone; cited from earlier work
[13] = human, plasma, oral, geometric mean (% CV)

CC(C)C[C@H](NC(=O)[C@H](Cc1ccccc1)NC(=O)c1cnccn1)B(O)O [bortezomib]
MTD ([1]; B2207, twice-weekly (biw), in combination with panobinostat): 1.3 mg/m^2 | Grade ≥3 diarrhea ([2]; 1.3 mg/m^2 IV bortezomib): 5% | Grade ≥3 diarrhea ([2]; 1.3 mg/m^2 SC bortezomib): 2%

C[C@@H]1C[C@H]2[C@@H]3CCC4=CC(=O)C=C[C@]4(C)[C@@]3(F)[C@@H](O)C[C@]2(C)[C@@]1(O)C(=O)CO [dexamethasone]
Cmax [3]: ~30 nM

Cc1[nH]c2ccccc2c1CCNCc1ccc(/C=C/C(=O)NO)cc1 [panobinostat, Panobinostat]
Lower panobinostat exposure at MTD in combination vs single-agent trials [4]: ~50% | AUC0-24 ([5]; geometric mean (% CV)): 95.2 (28.4) ng h/mL | Cmax [5, 13]: 15.3 ng/mL | half-life [5, 13]: 16.7 h | AUC(0-t) ([5]; human, plasma, oral, geometric mean (% CV), read-out: AUC0-24): 95 ng·h/mL | Vd/F ([5]; human, plasma, oral, geometric mean (% CV), read-out: Vz/F): 3550 L | Tmax ([5]; human, plasma, oral, median (range)): 2.02 h | MTD ([1]; B2207, tiw, in combination with bortezomib): 20 mg | AUC0-24 ([6]; geometric mean (% CV)): 139 (71) ng h/mL | Cmax ([6]; geometric mean (% CV)): 21.6 (83) ng/mL | T1/2 ([6]; geometric mean (% CV)): 16.9 (33) h | Tmax ([6]; median (range)): 1 (0.5–8) h | Grade 3 or 4 anemia (patients): 29 (9) % | Grade 3 or 4 diarrhea (patients): about 3% | Grade 3 or 4 fatigue (patients): 13 (4) % | Grade 3 or 4 nausea (patients): 6 (2) % | Grade 3 or 4 neutropenia (patients): 42 (14) % | Grade 3 or 4 thrombocytopenia (patients): about 21% | Grade 3 or 4 vomiting (patients): 4 (1) % | Grade 3 or 4 diarrhea (patients; listed as PAN): 10 (3) % | Grade 3 or 4 thrombocytopenia (patients; listed as PAN): 66 (21) % | Fraction of the radiolabeled dose recovered in the feces [7]: 44 to 77% | Fraction of the radiolabeled dose recovered in the urine [7]: 29 to 51% | Number of metabolites formed [7]: over 70 | Unchanged panobinostat in the feces, % of the administered dose [7]: < 3.5% | Effective half-life (T1/2) ([7]; single agent, based on the rate of accumulation): approximately 16 h | Median Tmax ([7]; single agent, oral administration): about 2 h | Accumulation ([7]; single-agent trial): approximately 1.1 fold | Dose linearity of pharmacokinetics ([7]; tested dose range between 10 and 30 mg): approximately linear | Steady state reached ([7]; thrice-weekly (tiw) dosing schedule): after the third dose | Effect of fed or fasting state on oral bioavailability [8]: marginally affected | Increase of panobinostat systemic exposure by ketoconazole (CYP3A): 80% | Increase of dextromethorphan systemic exposure by panobinostat (CYP2D6): 60% | Effect of mild, moderate, or severe renal impairment on plasma exposure [9]: did not alter the plasma exposure | Activity against histone deacetylases [10]: low nanomolar activity | Decrease in PAN exposure compared to historical single-agent data [11]: approximately 60% | Grade ≥3 thrombocytopenia [12]: 55%
